From patent US20230219978A1, “COMPOUND HAVING MACROCYCLIC STRUCTURE AND USE THEREOF” (SCINNOHUB PHARMACEUTICAL CO., LTD, priority 2020, published 2023) come the findings set out here.

Common to all, as to type: biochemical
One assay addresses T1, RET wt (Homo sapiens, UniProt P07949).
T1 construct: purchased Carna 08-159
Kind of assay: In vitro kinase activity assay (mobility shift assay), RET wild type. Particulars: ATP 16 μM, reaction time 60 min. The procedure:
(§1) The IC50 (half inhibitory concentration) values of the compounds were used as an indicator to evaluate the inhibitory effect of the compound on RET wild-type, RET mutant, TRKa, SRC, BTK and/or mutated BTK kinase.
(§2) Using the method of Mobility shift assay, the compounds were tested for inhibitory activity against the following kinases: RET wild type, RET mutant, TRKa, SRC, BTK and/or mutated BTK. The initial concentration of the test compound was 1000 nM, 3-fold dilution, 10 concentrations, detected in a well for each concentration.
(§3) 20 mM hydroxyethylpiperazineethanesulfonic acid (Hepes) (pH 7.5) buffer, 10 mM MgCl2, 1 mM ethylene glycol bis(aminoethyl ether)tetraacetic acid (EGTA), 0.02% polyoxyethylene lauryl ether (Brij35), 0.02 mg/ml […] (BSA), 0.1 mM Na3VO4, 2 mM dithiothreitol (DTT), 1% DMSO.
(§4) The test compounds were dissolved in 100% dimethyl sulfoxide (DMSO) system, and prepared as 10 mM for use, and stored in a nitrogen cabinet away from light.
(§5) • (1) Preparing 1× kinase reaction buffer. • (2) Preparation of compound concentration gradient: the initial concentration of the compounds was 1000 nM, which was diluted as 100-fold final concentration of solution in 100% dimethyl sulfoxide (DMSO) in a 384-well plate. The compound was accurately 3-fold diluted with the kinase buffer solution, 10 concentrations in total, and the final concentration was 0.0508 nM. The 100-fold final concentration of solution in 100% dimethyl sulfoxide (DMSO) was obtained by dilution in 384 source plate. The liquid separator Echo 550 was used to transfer 250 nl of 100-fold final concentration of compound to the target 384 well plate. 250 nl of DMSO was added to the positive and negative control wells. • (3) 2.5-fold final concentration of kinase solution was prepared by the 1× kinase buffer. • (4) 10 4, of 2.5-fold final concentration of kinase solution was added to the compound well and the positive control well, respectively; 10 4, of 1× kinase buffer was added to the negative control well. • (5) After centrifuging at 1000 rpm for 30 second, the reaction plate was shaken and mixed, followed by incubation at room temperature for 10 min. • (6) a mixed solution of 25/15-fold final concentration of adenosine triphosphate (ATP) and kinase substrate was prepared by 1× kinase buffer. • (7) The mixed solution (15 μL) of 25/15-fold final concentration of adenosine triphosphate (ATP) and substrate was added to initiate the reaction. • (8) 384-well plate was centrifuged at 1000 rpm for 30 second, shaken and mixed well, and then incubated at room temperature for 30-240 min. • (9) After stopping the kinase reaction, the plate was centrifugated at 1000 rpm for 30 second, shaken and mixed well. • (10)The conversion rate was read with Caliper EZ Reader.
(§6) wherein Conversion%_sample is the conversion rate reading of the sample; Conversion%_min: the mean value of negative control wells, representing the conversion rate reading of wells without enzymes; Conversion%_max: the mean value of positive control wells, representing the conversion rate reading of wells without compound inhibition.
(§7) The log value of concentration was taken as the X axis, and the percentage inhibition rate was taken as the Y axis. Graphpad 6.0 analysis software was used to fit the dose-response curve, so as to obtain the IC50 value of each compound on the enzyme activity

The target of another assay is T2, RET G810R (Homo sapiens, UniProt P07949, G810R).
T2 construct: purchased Proqinase 1724-0000-1
T2 sequence (P07949 29-1114 G810R): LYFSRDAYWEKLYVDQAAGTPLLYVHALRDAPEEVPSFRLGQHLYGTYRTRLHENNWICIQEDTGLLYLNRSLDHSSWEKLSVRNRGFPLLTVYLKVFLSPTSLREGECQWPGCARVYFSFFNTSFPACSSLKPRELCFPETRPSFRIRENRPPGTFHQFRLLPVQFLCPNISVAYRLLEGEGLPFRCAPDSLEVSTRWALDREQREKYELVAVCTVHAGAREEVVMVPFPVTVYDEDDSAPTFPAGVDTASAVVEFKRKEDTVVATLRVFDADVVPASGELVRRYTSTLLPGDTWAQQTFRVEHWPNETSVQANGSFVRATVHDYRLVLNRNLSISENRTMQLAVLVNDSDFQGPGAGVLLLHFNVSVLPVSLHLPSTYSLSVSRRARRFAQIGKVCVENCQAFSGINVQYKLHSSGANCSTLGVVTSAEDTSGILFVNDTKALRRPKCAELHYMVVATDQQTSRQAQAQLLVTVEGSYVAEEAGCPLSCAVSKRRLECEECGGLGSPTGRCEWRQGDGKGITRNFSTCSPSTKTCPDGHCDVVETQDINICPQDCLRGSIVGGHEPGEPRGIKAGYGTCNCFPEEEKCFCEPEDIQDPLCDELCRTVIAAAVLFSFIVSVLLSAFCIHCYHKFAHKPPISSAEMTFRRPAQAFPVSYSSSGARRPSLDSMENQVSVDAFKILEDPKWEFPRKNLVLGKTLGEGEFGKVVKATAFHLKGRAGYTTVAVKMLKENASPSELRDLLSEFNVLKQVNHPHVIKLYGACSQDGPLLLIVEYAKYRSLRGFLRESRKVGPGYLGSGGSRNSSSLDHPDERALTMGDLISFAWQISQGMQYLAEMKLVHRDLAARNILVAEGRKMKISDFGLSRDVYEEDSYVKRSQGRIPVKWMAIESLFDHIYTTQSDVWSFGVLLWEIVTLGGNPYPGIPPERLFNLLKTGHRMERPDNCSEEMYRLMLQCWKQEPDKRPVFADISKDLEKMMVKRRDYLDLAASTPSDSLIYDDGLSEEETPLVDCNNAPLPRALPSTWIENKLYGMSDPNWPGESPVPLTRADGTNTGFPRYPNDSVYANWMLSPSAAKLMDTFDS
As to the kind of experiment: In vitro kinase activity assay (mobility shift assay), RET G810R. Particulars: ATP 201 μM, reaction time 4 h. Here is the method:
as §1, §2, §3, §4, §5, §6, §7

The target of another assay is T3, BTK (Homo sapiens, UniProt Q06187).
T3 construct: purchased Carna 08-180
T3 sequence (Q06187 whole entry): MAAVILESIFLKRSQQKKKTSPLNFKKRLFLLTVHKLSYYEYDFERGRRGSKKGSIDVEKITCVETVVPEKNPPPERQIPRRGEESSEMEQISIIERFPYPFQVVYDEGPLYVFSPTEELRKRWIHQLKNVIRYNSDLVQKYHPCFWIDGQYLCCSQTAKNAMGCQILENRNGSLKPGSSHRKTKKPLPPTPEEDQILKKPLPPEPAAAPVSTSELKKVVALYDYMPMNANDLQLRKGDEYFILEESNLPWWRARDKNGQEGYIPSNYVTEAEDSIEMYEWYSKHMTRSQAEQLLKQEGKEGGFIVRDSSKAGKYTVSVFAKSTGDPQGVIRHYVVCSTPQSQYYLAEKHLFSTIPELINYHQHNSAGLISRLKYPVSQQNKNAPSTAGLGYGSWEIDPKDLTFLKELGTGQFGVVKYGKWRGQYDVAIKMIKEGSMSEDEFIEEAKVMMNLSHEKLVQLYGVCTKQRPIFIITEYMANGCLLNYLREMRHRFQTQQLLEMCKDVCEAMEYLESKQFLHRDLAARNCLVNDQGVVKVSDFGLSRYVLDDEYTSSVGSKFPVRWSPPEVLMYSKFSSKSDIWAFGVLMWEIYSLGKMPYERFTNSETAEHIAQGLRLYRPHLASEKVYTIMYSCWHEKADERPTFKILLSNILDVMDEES
Kind of assay: In vitro kinase activity assay (mobility shift assay), BTK. Particulars: ATP 71 μM, reaction time 30 min. Here is the method:
as §1, §2, §3, §4, §5, §6, §7

For a further assay, the target named is T4, RET V804M (Homo sapiens, UniProt P07949, V804M).
T4 construct: purchased signalchem R02-12GG
T4 sequence (P07949 29-1114 V804M): as the sequence (P07949 29-1114 G810R) above, with V776M, R782G counted along it
Kind of assay: In vitro kinase activity assay (mobility shift assay), RET V804M. Particulars: ATP 5.4 μM, reaction time 60 min. The procedure:
as §1, §2, §3, §4, §5, §6, §7

A value given as a limit tells only on which side of the number the result lay.

T1 sequence (P07949 29-1114): as the sequence (P07949 29-1114 G810R) above, with R782G counted along it

For `C[C@H]1CNC(=O)c2cnn3cc(-c4ccc5[nH]c(=O)[nH]c5c4)c(nc23)NCc2cc(F)cnc2O1` [Compound 38, (S, 1^3E, 1^4E)-4^5-fluoro-6-methyl-1^6-(2-oxo-2,3-dihydro-1H-benzo[d]imidazol-5-yl)-5-oxo-2,8-diaza-1(5,3)-pyrazolo[1,5-a]pyrimidin-4(3,2)-pyridinacyclononaphan-9-one], the half-maximal inhibitory concentration (IC50) at RET wt, on RET G810R and at BTK was over 1000 nM throughout.

Regarding `C[C@H]1CNC(=O)c2cnn3cc(C4=CCCC4)c(nc23)NCc2cc(F)cnc2O1` [Compound 41, (S, 1^3E, 1^4E)-1^6-(cyclopent-1-en-1-yl)-4^5-fluoro-6-methyl-5-oxa-2,8-diaza-1(5,3)-pyrazolo[1,5-a]pyrimidin-4(3,2)-pyridinacyclononaphan-9-one], the IC50 at RET wt was 13 nM; at RET G810R it was over 10000 nM; on RET V804M, over 10000 nM; on BTK, 2070 nM.

In the case of `C[C@H]1CNC(=O)c2cnn3c(N)c(-c4ccc(N)cc4)c(nc23)NCc2cc(F)cnc2O1` [Example 60, (S, 1^3E, 1^4E)-1^7-amino-1^6-(4-aminophenyl)-4^5-fluoro-6-methyl-5-oxa-2,8-diaza-1(5,3)-pyrazolino[1,5-a] pyrimidin-4(3,2)-pyridinacyclononaphan-9-one], the IC50 on RET wt amounted to 3.5 nM; at RET G810R it was 361 nM; on BTK it was 3.6 nM.

Regarding `CCOC(=O)Nc1ccc(-c2c3nc4c(cnn4c2N)C(=O)NC[C@H](C)Oc2ncc(F)cc2CN3)cc1` [Example 62, ethyl (4-((S, 1^3E, 1^4E)-1^7-amino-4^5-fluoro-6-methyl-9-oxo-5-oxa-2,8-diaza-1(5,3)-pyrazolino [1,5-a]pyrimidin-4(3,2)-pyridinacyclononaphan-1^6-yl)-phenyl)carbamate], the results for the IC50 at RET wt, on RET G810R and on RET V804M were 0.26 nM, 15 nM and 0.94 nM, respectively.

For the compound `CCCOC(=O)Nc1ccc(-c2c3nc4c(cnn4c2N)C(=O)NC[C@H](C)Oc2ncc(F)cc2CN3)cc1` [Example 67, propyl (4-((S, 1^3E, 1^4E)-1^7-amino-4^5-fluoro-6-methyl-9-oxo-5-oxa-2,8-diaza-1(5,3)-pyrazolino [1,5-a]pyrimidin-4(3,2)-pyridinacyclononaphan-1^6-yl)-phenyl)carbamate], the IC50 turned out to be 1.19 nM on RET wt, 35.7 nM on RET G810R and 3.58 nM on RET V804M.

Regarding `C[C@H]1CNC(=O)c2cnn3c(N)c(-c4ccc(NC(=O)OCC(F)(F)F)cc4)c(nc23)NCc2cc(F)cnc2O1` [Example 68, trifluoroethyl (4-((S, 1^3E, 1^4E)-1^7-amino-4^5-fluoro-6-methyl-9-oxo-5-oxa-2,8-diaza-1(5,3)-pyrazolino [1,5-a]pyrimidin-4(3,2)-pyridinacyclononaphan-1^6-yl)-phenyl)carbamate], the IC50 was determined as 6.2 nM on RET wt, 155 nM on RET G810R and 15 nM on RET V804M.

As for `CCOC(=O)Nc1ccc(-c2c3nc4c(cnn4c2N)C(=O)NC[C@H](C)Oc2ncc(F)cc2CN3)cc1F` [Example 69, ethyl (4-((S, 1^3E, 1^4E)-1^7-amino-4^5-fluoro-6-methyl-9-oxo-5-oxa-2,8-diaza-1(5,3)-pyrazolo[1,5-a]pyrimidin-4(3,2)-pyridinacyclononaphan-1^6-yl)-2-fluorophenyl)carbamate], the IC50 worked out at 0.87 nM on RET wt, 16 nM on RET G810R and 2.8 nM at RET V804M.

Consider `CCOC(=O)Nc1c(F)cc(-c2c3nc4c(cnn4c2N)C(=O)NC[C@H](C)Oc2ncc(F)cc2CN3)cc1F` [Example 70, (S, 1^3E, 1^4E)-1^7-amino-4^5-fluoro-6-methyl-1^6-(6^2′^6-difluoro-6^1-(ethoxycarbonyl)amino-4-yl)phenyl-5-oxa-2,8-diaza-1(5,3)-pyrazolo[1,5-a]pyrimidinyl-4(3,2)-pyridinacyclononaphan-9-one], for which the results for the IC50 at RET wt, on RET G810R and on RET V804M were 15 nM, over 1000 nM and 551 nM, respectively.

In the case of `CCOC(=O)Nc1ccc(-c2c3nc4c(cnn4c2N)C(=O)NC[C@H](C)Oc2ncc(F)cc2CN3)c(F)c1` [Example 71, ethyl (4-((S, 1^3E, 1^4E)-1^7-amino-4^5-fluoro-6-methyl-9-oxo-5-oxo-2,8-diaza-1(5,3)-pyrazolo[1,5-a]pyrimidin-4(3,2)-pyridinacyclononaphan-1^6-yl)-3-fluorophenyl)carbamate], the IC50 was 1.2 nM at RET wt, 23 nM on RET G810R and 1.6 nM on RET V804M.

As to `CCOC(=O)Nc1ccc(-c2c3nc4c(cnn4c2N)C(=O)NCCOc2ncc(F)cc2CN3)cc1` [Example 72, ethyl (4-((1^3E, 1^4E)-1^7-amino-4^5-fluoro-9-oxo-5-oxo-2,8-diaza-1(5,3)-pyrazolo[1,5-a]pyrimidin-4(3,2)-pyridinacyclononaphan-1^6-yl)phenyl)carbamate], the IC50 was found to be 0.56 nM at RET wt, 14 nM at RET G810R and 1.4 nM at RET V804M.

In the case of `Nc1c(-c2ccccc2)c2nc3c(cnn13)C(=O)NCCCc1ncc(F)cc1CN2` [Example 73, (1^3E, 1^4E)-1^7-(amino)-4^5-fluoro-1^6-phenyl-2,8-aza-1(5,3)-pyrazolo[1,5-a]pyrimidinyl-4(3,2)-pyridinacyclononaphan-9-one], the figures for the IC50 on RET wt, at RET G810R and on RET V804M were 4.4 nM, 238 nM and 137 nM, respectively.

Take `CCNC(=O)Nc1ccc(-c2c3nc4c(cnn4c2N)C(=O)NC[C@H](C)Oc2ncc(F)cc2CN3)cc1` [Example 80, 1-(4-((S, 1^3E, 1^4E)-1^7-amino-4^5-fluoro-6-methyl-9-oxo-5-oxa-2,8-diaza-1(5,3)-pyrazolo[1,5-a]pyrimidin-4(3,2)-pyridinacyclononaphan-1^6-yl)-phenyl)-3-ethylurea]: the IC50 at RET wt worked out at 0.6 nM; on RET G810R, 15 nM; at RET V804M, 0.99 nM.

On to `CCN(C)C(=O)Nc1ccc(-c2c3nc4c(cnn4c2N)C(=O)NC[C@H](C)Oc2ncc(F)cc2CN3)cc1` [Example 81, 3-(4-((S, 1^3E,VE)-1^7-amino-4^5-fluoro-6-methyl-9-oxo-5-oxa-2,8-diaza-1(5,3)-pyrazolo[1,5-a]pyrimidin-4(3,2)-pyridinacyclononaphan-1^6-yl)-phenyl)-1-ethyl-1-methylure a], for which the IC50 is 89 nM on RET wt, over 1000 nM on RET G810R and 384 nM at RET V804M.

As to `C[C@H]1CNC(=O)c2cnn3c(N)c(-c4cnn(C)c4)c(nc23)NCc2cc(F)cnc2O1` [Example 82, (S, 1^3E, 1^4E)-1^7-amino-4^5-fluoro-6-methyl-1^6-(1-methyl-1H-pyrazol-4-yl)-5-oxa-2,8-diaza-1(5,3)-pyrazolo[1,5-a]pyrimidin-4(3,2)-pyridinacyclononaphan-9-one], the values for the IC50 at RET wt, at RET G810R and on RET V804M were 1.1 nM, 138 nM and 9.5 nM, respectively.

Consider `CCNC(=O)Cc1ccc(-c2c3nc4c(cnn4c2N)C(=O)NC[C@H](C)Oc2ncc(F)cc2CN3)cc1` [Example 83, 2-(4-((S, 1^3E, 1^4E)-1^7-4^5-fluoro-6-methyl-9-oxo-5-oxa-2,8-diaza-1(5,3)-pyrazolo[1,5-a]pyrimidin-4(3,2)-pyridinacyclononaphan-1^6-yl)phenyl)-N-ethylacetamide], for which the values for the IC50 at RET wt, at RET G810R and on RET V804M were 49 nM, over 1000 nM and 281 nM, respectively.

In general, IC50 refers to the concentration that gives 50% inhibition.
